Measurements taken from ChEMBL document CHEMBL1201862, “PubChem BioAssay data set” (2004).
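Compound exposure: 48 hours, 5 concentrations, 96-well plates. Abbreviation: GI50, concentration required for 50% inhibition of growth.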 The source made the active and inactive calls. Cut-off read from the data, not from the text of the source: active = GI50 up to about 1.1 µM and inactive = higher.

Assays:
Experiment in all cases: inhibition of tumour cell growth, NCI panel, 48 h
Malme-3M = system: Malme-3M
SK-OV-3 = system: SK-OV-3
HOP-92 = system: HOP-92
HCT-15 = system: HCT-15
MDA-N = system: MDA-N
OVCAR-3 = system: OVCAR-3
SNB-19 = system: SNB-19
UACC-257 = system: UACC-257
A498 = system: A498
K562 = system: K562
ACHN = system: ACHN
CCRF-CEM = system: CCRF-CEM
EKVX = system: EKVX
MDA-MB-231 = system: MDA-MB-231
786-0 = system: 786-0
HCC 2998 = system: HCC 2998
IGROV-1 = system: IGROV-1
SR = system: SR
COLO 205 = system: COLO 205
Hs-578T = system: Hs-578T
HCT-116 = system: HCT-116
HT-29 = system: HT-29
BT-549 = system: BT-549
NCI-H522 = system: NCI-H522
UACC-62 = system: UACC-62
OVCAR-4 = system: OVCAR-4
NCI-H226 = system: NCI-H226
MCF7 = system: MCF7
MDA-MB-435 = system: MDA-MB-435
KM12 = system: KM12
SF-268 = system: SF-268
SK-MEL-5 = system: SK-MEL-5
RPMI-8226 = system: RPMI-8226
OVCAR-5 = system: OVCAR-5
NCI-H23 = system: NCI-H23
PC-3 = system: PC-3
NCI/ADR-RES = system: NCI/ADR-RES
SN12C = system: SN12C
LOX IMVI = system: LOX IMVI
UO-31 = system: UO-31
SF-295 = system: SF-295
M14 = system: M14
SK-MEL-2 = system: SK-MEL-2
U-251 = system: U-251
DU-145 = system: DU-145
MOLT-4 = system: MOLT-4
SW-620 = system: SW-620
RXF 393 = system: RXF 393
A549 = system: A549
NCI-H460 = system: NCI-H460
T47D = system: T47D
CAKI-1 = system: CAKI-1
OVCAR-8 = system: OVCAR-8
TK-10 = system: TK-10
SF-539 = system: SF-539
HL-60 = system: HL-60
SNB-75 = system: SNB-75
HOP-62 = system: HOP-62
SK-MEL-28 = system: SK-MEL-28

With `CC1=CC(=O)N(n2c(Cc3ccc(Cl)cc3)n[nH]c2=O)C1=O` the GI50 (Malme-3M) was 94.2 µM (inactive), the GI50 (SK-OV-3) was > 100 µM (inactive) and the GI50 (HOP-92) was 21.1 µM (inactive). The GI50 (HCT-15) was 44.9 µM, the GI50 (MDA-N) was 44.7 µM (inactive) and the GI50 (OVCAR-3) was 33.6 µM (inactive). The GI50 (SNB-19) was 55.6 µM (inactive), the GI50 (UACC-257) was > 100 µM (inactive) and the GI50 (A498) was 71.8 µM (inactive). The GI50 (K562) was 23.3 µM (inactive), the GI50 (ACHN) was 82 µM (inactive) and the GI50 (CCRF-CEM) was 7.91 µM (inactive). The GI50 (EKVX) was 49 µM (inactive), the GI50 (MDA-MB-231) was 46.3 µM (inactive) and the GI50 (786-0) was 60.5 µM (inactive). The GI50 (HCC 2998) was > 100 µM (inactive), the GI50 (IGROV-1) was 83.4 µM (inactive) and the GI50 (SR) was 15.9 µM (inactive). For the same compound, the GI50 (COLO 205) was 71.3 µM (inactive), the GI50 (Hs-578T) was 35.4 µM (inactive) and the GI50 (HCT-116) was 40.3 µM (inactive). The GI50 (HT-29) was 19.5 µM (inactive), the GI50 (BT-549) was 35.3 µM (inactive) and the GI50 (NCI-H522) was 17.4 µM (inactive). For the same compound, the GI50 (UACC-62) was 19.3 µM (inactive), the GI50 (OVCAR-4) was 38.6 µM (inactive) and the GI50 (NCI-H226) was > 100 µM (inactive). The GI50 (MCF7) was 30.5 µM (inactive), the GI50 (MDA-MB-435) was 38.2 µM (inactive) and the GI50 (KM12) was 52.4 µM (inactive). For the same compound, the GI50 (SF-268) was 70.1 µM (inactive), the GI50 (SK-MEL-5) was 46 µM (inactive) and the GI50 (RPMI-8226) was 22.6 µM (inactive). The GI50 (OVCAR-5) was > 100 µM (inactive), the GI50 (NCI-H23) was 92.3 µM (inactive) and the GI50 (PC-3) was 26.4 µM (inactive). For the same compound, the GI50 (NCI/ADR-RES) was > 100 µM (inactive), the GI50 (SN12C) was 81.3 µM (inactive) and the GI50 (LOX IMVI) was 27.6 µM (inactive). The GI50 (UO-31) was > 100 µM (inactive), the GI50 (SF-295) was 28.4 µM (inactive) and the GI50 (M14) was 47.9 µM (inactive). For the same compound, the GI50 (SK-MEL-2) was > 100 µM (inactive), the GI50 (U-251) was 27.2 µM (inactive) and the GI50 (DU-145) was > 100 µM (inactive). For the same compound, the GI50 (MOLT-4) was 20.8 µM (inactive), the GI50 (SW-620) was 32.5 µM (inactive) and the GI50 (RXF 393) was 8.24 µM (inactive). For the same compound, the GI50 (A549) was 77.6 µM (inactive), the GI50 (NCI-H460) was 36.1 µM (inactive) and the GI50 (T47D) was 35.4 µM (inactive). The GI50 (CAKI-1) was 88.3 µM (inactive), the GI50 (OVCAR-8) was 55.5 µM (inactive) and the GI50 (TK-10) was 98.9 µM (inactive). For the same compound, the GI50 (SF-539) was 39.1 µM (inactive).
With `CC(=O)O[C@H]1C(=O)[C@@]2(C)[C@H]([C@H](OC(=O)c3ccccc3)[C@]3(O)C[C@H](OC(=O)[C@H](O)[C@@H](NC(=O)c4ccccc4)c4ccc5ccccc5c4)C(C)=C1C3(C)C)[C@]1(OC(C)=O)CO[C@@H]1C[C@@H]2O` the GI50 (Malme-3M) was 0.179 µM (active), the GI50 (SK-OV-3) was 0.0248 µM (active) and the GI50 (HOP-92) was 2.25 µM (inactive). For the same compound, the GI50 (HCT-15) was 1.54 µM, the GI50 (MDA-N) was 0.0101 µM (active) and the GI50 (OVCAR-3) was 0.0362 µM (active). The GI50 (SNB-19) was 0.279 µM (active), the GI50 (UACC-257) was 0.0826 µM (active) and the GI50 (A498) was 0.467 µM (active). For the same compound, the GI50 (K562) was 0.029 µM (active), the GI50 (ACHN) was 1.51 µM (inactive) and the GI50 (CCRF-CEM) was 0.0287 µM (active). For the same compound, the GI50 (EKVX) was 5.35 µM (inactive), the GI50 (MDA-MB-231) was 0.0476 µM (active) and the GI50 (786-0) was 0.153 µM (active). For the same compound, the GI50 (HCC 2998) was 0.0457 µM (active), the GI50 (IGROV-1) was 0.0467 µM (active) and the GI50 (SR) was 0.0239 µM (active). The GI50 (COLO 205) was 0.0787 µM (active), the GI50 (Hs-578T) was 0.0191 µM (active) and the GI50 (HCT-116) was 0.0266 µM (active). For the same compound, the GI50 (HT-29) was 0.0454 µM (active), the GI50 (BT-549) was 0.0807 µM (active) and the GI50 (NCI-H522) was 0.0524 µM (active). For the same compound, the GI50 (UACC-62) was 0.0463 µM (active), the GI50 (OVCAR-4) was 0.841 µM (active) and the GI50 (MCF7) was 0.00966 µM (active). The GI50 (MDA-MB-435) was 0.00993 µM (active), the GI50 (KM12) was 0.0512 µM (active) and the GI50 (HL-60) was 0.0107 µM (active). The GI50 (SNB-75) was 0.0594 µM (active), the GI50 (SF-268) was 0.0239 µM (active) and the GI50 (SK-MEL-5) was 0.0685 µM (active). For the same compound, the GI50 (RPMI-8226) was 0.0229 µM (active), the GI50 (OVCAR-5) was 0.153 µM (active) and the GI50 (NCI-H23) was 0.0912 µM (active). The GI50 (PC-3) was 0.0553 µM (active), the GI50 (NCI/ADR-RES) was 15.7 µM (inactive) and the GI50 (SN12C) was 0.0681 µM (active). For the same compound, the GI50 (LOX IMVI) was 0.0887 µM (active), the GI50 (UO-31) was 2.39 µM (inactive) and the GI50 (HOP-62) was 0.0506 µM (active). For the same compound, the GI50 (SF-295) was 0.304 µM (active), the GI50 (M14) was 0.0466 µM (active) and the GI50 (SK-MEL-2) was 0.0362 µM (active). The GI50 (U-251) was 0.0692 µM (active), the GI50 (DU-145) was 0.1 µM (active) and the GI50 (MOLT-4) was 0.0264 µM (active). For the same compound, the GI50 (SW-620) was 0.0306 µM (active), the GI50 (RXF 393) was 0.219 µM (active) and the GI50 (A549) was 0.0998 µM (active). The GI50 (NCI-H460) was 0.0706 µM (active), the GI50 (SK-MEL-28) was 0.132 µM (active) and the GI50 (T47D) was 2.16 µM (inactive). For the same compound, the GI50 (CAKI-1) was 1.59 µM (inactive), the GI50 (OVCAR-8) was 0.091 µM (active) and the GI50 (TK-10) was 0.506 µM (active). The GI50 (SF-539) was 0.0336 µM (active).
